# pKi: −log10 of the molar value. Read-outs that look alike come from different tables or passages of the source.
# How the values were obtained:
# [1] = CUPRAC assay; conditions: pH 7.0, 450 nm
# Protocol: Cupric reducing antioxidant capacity (CUPRAC) assay was performed according to the method by Apak et al.[20] with slight modifications. The CUPRAC reagent was prepared by mixing equal volume of CuCl2 (10 mM), neocuproine solution (7.5 mM), and acetate buffer (pH = 7.0). Subsequently, 50 µl of TP-10, TP-315, TP-427 (0.002–0.4 mg/ml) and 150 µl of CUPRAC reagent were pipetted into each well of 96-well plate (Nunc, Roskilde, Denmark). After pipetting, the plate was shaken for 5 min and then incubated for 25 min in the dark at room temperature. The absorbance of the solutions was read at 450 nm using a microplate reader (Epoch, BioTek Instruments, Inc., Winooski, VT, USA). At least six tests were performed for each concentration of the investigated compounds. The results were expressed as the IC50 (µg/ml) ± SD.
# [2] = molecular target: T1, hCA II (Homo sapiens, UniProt P00918); test: Carbonic anhydrase inhibition, stopped flow CO2 hydration; type: biochemical
# T1 construct: made in house
# Protocol: (§1) Carbonic anhydrase catalysed CO2 hydration activity was measured using an Applied Photophysics stopped-flow spectrometer. […] The uncatalyzed rates were determined in the same manner and subtracted from the total observed rates. Stock solutions of inhibitor (0.1 mM) were prepared in distilled-deionized water and dilutions up to 0.01 nM were done thereafter with the assay buffer. […] The inhibition constants were obtained by non-linear least-squares methods using PRISM 3 and the Cheng–Prusoff equation and represent the mean from at least three different determinations. All CA isoforms were recombinant ones obtained in-house[21]^,[22].
# [3] = molecular target: T2, hCA I (Homo sapiens, UniProt P00915); test: as above; type: biochemical; conditions: 1 h incubation
# T2 construct: made in house
# T2 sequence (P00915 whole entry): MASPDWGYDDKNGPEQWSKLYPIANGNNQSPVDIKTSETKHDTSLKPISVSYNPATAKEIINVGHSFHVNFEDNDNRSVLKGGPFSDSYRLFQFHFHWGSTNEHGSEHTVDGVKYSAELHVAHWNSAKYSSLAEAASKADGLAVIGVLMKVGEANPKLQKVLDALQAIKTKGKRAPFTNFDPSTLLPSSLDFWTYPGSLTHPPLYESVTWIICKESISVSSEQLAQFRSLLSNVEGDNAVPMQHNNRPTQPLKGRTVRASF
# Protocol: as §1
# [4] = tested on: human recombinant acetylcholinesterase (hrAChE); test: AChE inhibition, Ellman method; type: biochemical; conditions: 500 µM
# Protocol: The inhibition ability of tested compounds against human recombinant acetylcholinesterase (hrAChE) and human recombinant butyrylcholinesterase (hrBChE) was determined by standard Ellman method adapted for 96-well plate. The reaction mixture contained 10 µL of hrAChE (70 ng/mL protein final concentration) or hrBChE (220 ng/mL protein final concentration), 10 µL of tested compound (1, 10, 100, and 500 µM final concentration), 20 µL of 5,5′-dithiobis-2-nitrobenzoic acid (DTNB; 500 µM final concentration), and 60 µL of 20 mM Na-phosphate buffer (pH 7.4). The mixture was pre-incubated at 37 °C for 15 min and subsequently 10 µL substrate acetylthiocholine iodide (ATChI) or butyrylthiochiline iodide (BTChI) was added to the final concentration of 1000 µM[24]. The final volume of reaction mixture was 100 µL. The product formed during the reaction (5-thio-2-nitrobenzoic acid, TNB) was determined by measurement of its absorbance at 436 nm. The catalytic activity was evaluated as amount of product (%) formed by enzyme after 10 min of mixture incubation at 37 °C.
# [5] = tested on: U-87 MG cells; test: Mitochondrial membrane potential, JC-1 dye (flow cytometry); type: cell-based, human; conditions: 10 μg/ml, 24 h, control 5.0%
# Protocol: Mitochondrial membrane potential changes (ΔMMP) were assessed using the JC-1 MitoScreen Kit (BD Biosciences Systems, San Jose, CA, USA) as described previously. Sample of 10^6 cells/ml was suspended in a buffer mixture and incubated for 15 min at 37 °C with JC-1 dye provided by the kit manufacturer. Subsequently, the cells were washed and resuspended in a buffer. Samples prepared in this way were subjected to cytometric analysis using a cytometer BD FACSCanto II and FACSDiva software (both from BD Biosciences Systems, San Jose, CA, USA).
# [6] = tested on: HepG2; set-up: method as in PMID 30594731, PMID 28824309; conditions: 10 µg/ml; cited from earlier work
# [7] = tested on: HEK-293; set-up: method as in PMID 30594731, PMID 28824309; conditions: 10 µg/ml; cited from earlier work
# [8] = tested on: motor coordination; conditions: cited from earlier work; for TD50 ± SEM: chimney test
# [9] = 1 h incubation, read-out: KI hCA II (1h)
# [10] = 6 h incubation, read-out: KI hCA II (6h)
# [11] = incubation time not given, read-out: Ki CA II
SMILES,"IC50 ± SD, CUPRAC [1]","pKi [2, 9]","pKi [2, 10]",pKi [3],decrease of hrAChE activity [4],cells with low mitochondrial membrane potential (ΔΨm) [5],"pKi [2, 11]",toxicity for HepG2 cells [6],toxicity for HEK-293 cells [7],"TD50 ([8]; Figure 1, pretreatment time not given)",TD50 ± SEM ([8]; pretreatment time 15 min),TD50 ± SEM ([8]; pretreatment time 30 min)
"Cc1ccc(-n2c(-c3cccc(Cl)c3)n[nH]c2=S)cc1 [TP-10, 5-(3-chlorophenyl)-4-(4-methylphenyl)-2,4-dihydro-3H-1,2,4-triazole-3-thione]",16.04 ± 0.61 µg/mL,4.13,< 4.00,5.66,~54%,8.0%,,,,,,
"CCCCCCn1c(-c2cccc(Cl)c2)n[nH]c1=S [TP-315, 5-(3-chlorophenyl)-4-hexyl-2,4-dihydro-3H-1,2,4-triazole-3-thione]",22.28 ± 1.03 µg/mL,< 4.00,< 4.00,,~66%,9.9%,< 4.00,non-toxic,non-toxic,,,
"CCCCCCn1c(Cc2cccc(Cl)c2)n[nH]c1=S [TP-427, 5-(3-chlorobenzyl)-4-hexyl-2,4-dihydro-3H-1,2,4-triazole-3-thione]",30.92 ± 1.11 µg/mL,< 4.00,< 4.00,< 4.00,~61%,16.5%,< 4.00,non-toxic,non-toxic,> 1000 mg/kg,>1000 mg/kg,>1000 mg/kg
